We go through 25 compounds from publication PMC2263054, “Functional evolution of the vitamin D and pregnane X receptors” (BMC Evolutionary Biology, 2007).

Holding throughout (type): cell-based
One test addresses T1, Sea lamprey VDR (Petromyzon marinus, UniProt Q7ZZY9).
T1 sequence (Q7ZZY9 92-406): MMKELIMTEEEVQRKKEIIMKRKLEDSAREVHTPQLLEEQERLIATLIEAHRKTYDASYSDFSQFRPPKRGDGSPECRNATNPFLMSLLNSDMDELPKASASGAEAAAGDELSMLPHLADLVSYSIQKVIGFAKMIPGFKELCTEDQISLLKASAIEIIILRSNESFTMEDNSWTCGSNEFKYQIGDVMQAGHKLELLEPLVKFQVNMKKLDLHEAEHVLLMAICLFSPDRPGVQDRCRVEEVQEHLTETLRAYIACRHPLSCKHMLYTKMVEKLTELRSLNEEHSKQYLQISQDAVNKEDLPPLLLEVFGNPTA

The target of another test is T2, Zebrafish VDR (Danio rerio, UniProt Q9PTN2).
T2 sequence (Q9PTN2 121-453): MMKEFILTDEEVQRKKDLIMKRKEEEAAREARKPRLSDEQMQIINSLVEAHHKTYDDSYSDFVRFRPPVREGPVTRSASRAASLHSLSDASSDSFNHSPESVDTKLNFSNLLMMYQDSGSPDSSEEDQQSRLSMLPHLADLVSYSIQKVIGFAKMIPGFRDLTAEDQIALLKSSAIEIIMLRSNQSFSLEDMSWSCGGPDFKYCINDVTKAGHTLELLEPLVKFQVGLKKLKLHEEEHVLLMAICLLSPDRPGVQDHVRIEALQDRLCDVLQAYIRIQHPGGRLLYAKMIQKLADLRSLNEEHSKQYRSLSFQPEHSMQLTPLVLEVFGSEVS
In words: luciferase reporter transactivation assay in HepG2-NTCP cells, GAL4/zfVDR LBD chimera with tk-UAS-Luc. The conditions noted are these: for Effect on zebrafish VDR: screening for activators, at least three concentrations of each drug.

The target of the next test is T3, Xenopus laevis VDR (Xenopus laevis, UniProt O13124).
T3 sequence (O13124 90-422): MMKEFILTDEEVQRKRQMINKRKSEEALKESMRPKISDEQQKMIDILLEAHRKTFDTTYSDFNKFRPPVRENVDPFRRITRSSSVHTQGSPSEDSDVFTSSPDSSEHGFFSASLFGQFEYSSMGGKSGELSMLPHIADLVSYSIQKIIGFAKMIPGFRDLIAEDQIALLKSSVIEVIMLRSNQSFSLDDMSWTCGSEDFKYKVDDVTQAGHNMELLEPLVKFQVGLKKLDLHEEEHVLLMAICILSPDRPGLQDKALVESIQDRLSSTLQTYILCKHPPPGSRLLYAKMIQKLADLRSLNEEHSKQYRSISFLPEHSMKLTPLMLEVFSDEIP
Briefly: luciferase reporter transactivation assay in HepG2-NTCP cells, GAL4/xlVDR LBD chimera with tk-UAS-Luc. The conditions noted are these: for Effect on Xenopus laevis VDR: screening for activators, at least three concentrations of each drug. (In a reporter assay the amount or activity of a reporter protein is the signal.)

[1] abbreviates: screening for activators, at least three concentrations of each drug.
Setting [2] is: HepG2-NTCP cells, luciferase reporter, unit not given, also cells saying No effect.

“Also recorded” adds a separate entry of the source. Read-outs that look alike come from different tables or passages of the source.

`CC(C)=CCC/C(C)=C/CC/C(C)=C/CO` [Farnesol]: on Sea lamprey VDR (setting [1]), the “Effect on sea lamprey VDR” value was “No effect”. Also, the “Effect on zebrafish VDR” value on Zebrafish VDR is reported as “No effect”. In addition, the “Effect on Xenopus laevis VDR” value at Xenopus laevis VDR is reported as “No effect”.

With `CC(C)=CCC/C(C)=C/CC/C(C)=C/CSCC(=O)O` [Farnesylthioacetic acid], on Sea lamprey VDR (setting [1]), the “Effect on sea lamprey VDR” value was “No effect”. Besides, the “Effect on zebrafish VDR” value at Zebrafish VDR was “No effect”. In addition, the “Effect on Xenopus laevis VDR” value on Xenopus laevis VDR was “No effect”.

As for `CC(C(=O)O)c1ccc(-c2ccccc2)c(F)c1` (stereo not drawn) [Flurbiprofen], the “Effect on sea lamprey VDR” value at Sea lamprey VDR (setting [1]) is listed as “No effect”. Also, at Zebrafish VDR, the “Effect on zebrafish VDR” value was “No effect”. Besides, the “Effect on Xenopus laevis VDR” value on Xenopus laevis VDR is listed as “No effect”.

On to `O=C(O)Cc1cccc(OCCCN(Cc2cccc(C(F)(F)F)c2Cl)CC(c2ccccc2)c2ccccc2)c1` [GW3965], for which the “Effect on sea lamprey VDR” value at Sea lamprey VDR (setting [1]) was “None of these three VDRs were activated; also recorded: No effect”. Also, the “Effect on zebrafish VDR” value on Zebrafish VDR is “None of these three VDRs were activated; also recorded: No effect”. The “Effect on Xenopus laevis VDR” value on Xenopus laevis VDR is “None of these three VDRs were activated; also recorded: No effect”.

For `CC(C)c1onc(-c2c(Cl)cccc2Cl)c1COc1ccc(/C=C/c2cccc(C(=O)O)c2)c(Cl)c1` [GW4064], the “Effect on sea lamprey VDR” value on Sea lamprey VDR (setting [1]) is “None of these three VDRs were activated”. Further, on Zebrafish VDR, the “Effect on zebrafish VDR” value is listed as “None of these three VDRs were activated”. The “Effect on Xenopus laevis VDR” value at Xenopus laevis VDR is on record as “None of these three VDRs were activated”.

Regarding `CC(C)(Sc1ccc(CCN(CCCCC2CCCCC2)C(=O)NC2CCCCC2)cc1)C(=O)O` [GW 7647], the “Effect on sea lamprey VDR” value on Sea lamprey VDR (setting [1]) is on record as “No effect”. At Zebrafish VDR, the “Effect on zebrafish VDR” value is “No effect”. Also, the “Effect on Xenopus laevis VDR” value on Xenopus laevis VDR is on record as “No effect”.

On to `O=C(Nc1ccccc1)c1cc([N+](=O)[O-])ccc1Cl` [GW 9662], for which the “Effect on sea lamprey VDR” value at Sea lamprey VDR (setting [1]) is “No effect”. Also, on Zebrafish VDR, the “Effect on zebrafish VDR” value is reported as “No effect”. In addition, at Xenopus laevis VDR, the “Effect on Xenopus laevis VDR” value is “No effect”.

For the compound `Cc1ccc(C)c(OCCCC(C)(C)C(=O)O)c1` [Gemfibrozil], the “Effect on sea lamprey VDR” value on Sea lamprey VDR (setting [1]) is on record as “No effect”. Also, the “Effect on zebrafish VDR” value at Zebrafish VDR is listed as “No effect”. The “Effect on Xenopus laevis VDR” value on Xenopus laevis VDR was “No effect”.

For the compound `CC(C)=CCC/C(C)=C/CC/C(C)=C/CC/C(C)=C/CO` [Geranygeraniol], the “Effect on sea lamprey VDR” value at Sea lamprey VDR (setting [1]) is “No effect”. Besides, the “Effect on zebrafish VDR” value on Zebrafish VDR is given as “No effect”. Besides, on Xenopus laevis VDR, the “Effect on Xenopus laevis VDR” value is “No effect”.

Turning to `CC(CCC(=O)NCC(=O)O)C1CCC2C3C(O)CC4CC(O)CCC4(C)C3CCC12C` (stereo not drawn) [Glycochenodeoxycholic acid], the “Effect on sea lamprey VDR” value at Sea lamprey VDR (setting [1]) is recorded as “No effect”. In addition, at Zebrafish VDR, the “Effect on zebrafish VDR” value was “No effect”. The “Effect on Xenopus laevis VDR” value on Xenopus laevis VDR is reported as “No effect”.

`C[C@H](CCC(=O)NCC(=O)O)[C@H]1CC[C@H]2[C@@H]3[C@H](O)C[C@@H]4C[C@H](O)CC[C@]4(C)[C@H]3C[C@H](O)[C@]12C.O` [Glycocholic acid hydrate]: the “Effect on sea lamprey VDR” value on Sea lamprey VDR (setting [1]) is “No effect”. In addition, the “Effect on zebrafish VDR” value on Zebrafish VDR is recorded as “No effect”. For the same compound, on Xenopus laevis VDR, the “Effect on Xenopus laevis VDR” value was “No effect”.

On to `C[C@H](CCC(=O)NCC(=O)O)[C@H]1CC[C@H]2[C@@H]3CC[C@@H]4C[C@H](O)CC[C@]4(C)[C@H]3C[C@H](O)[C@]12C.O` [Glycodeoxycholic acid monohydrate], for which the “Effect on sea lamprey VDR” value on Sea lamprey VDR (setting [1]) was “No effect”. On Zebrafish VDR, the “Effect on zebrafish VDR” value is recorded as “No effect”. Besides, on Xenopus laevis VDR, the “Effect on Xenopus laevis VDR” value is “No effect”.

Consider `CC(CCC(=O)NCC(=O)O)C1CCC2C3CCC4CC(O)CCC4(C)C3CC(O)C12C` (stereo not drawn) [Glycodeoxycholic acid], for which the “Effect on sea lamprey VDR” value on Sea lamprey VDR (setting [1]) was “No effect”. At Zebrafish VDR, the “Effect on zebrafish VDR” value was “No effect”. Also, the “Effect on Xenopus laevis VDR” value on Xenopus laevis VDR was “No effect”.

Turning to `C[C@H](CCC(=O)NCC(=O)O)[C@H]1CC[C@H]2[C@@H]3CC[C@@H]4C[C@H](OS(=O)(=O)O)CC[C@]4(C)[C@H]3CC[C@]12C` [Glycolithocholic acid 3-sulfate], the “Effect on sea lamprey VDR” value at Sea lamprey VDR (setting [1]) was “No effect”. For the same compound, the “Effect on zebrafish VDR” value on Zebrafish VDR was “No effect”. Besides, on Xenopus laevis VDR, the “Effect on Xenopus laevis VDR” value is “No effect”.

Take `CC(=O)N1CCN(c2ccc(OCC3COC(Cn4ccnc4)(c4ccc(Cl)cc4Cl)O3)cc2)CC1` (stereo not drawn) [Ketoconazole]: the “Effect on sea lamprey VDR” value at Sea lamprey VDR (setting [1]) is reported as “No effect”. Also, the “Effect on zebrafish VDR” value at Zebrafish VDR is reported as “No effect”. Besides, the “Effect on Xenopus laevis VDR” value on Xenopus laevis VDR is “No effect”.

For the compound `CCCc1c(OCCCCc2nnn[nH]2)ccc(C(C)=O)c1O` [LY 171883], the “Effect on sea lamprey VDR” value on Sea lamprey VDR (setting [1]) is given as “No effect”. Further, the “Effect on zebrafish VDR” value at Zebrafish VDR was “No effect”. The “Effect on Xenopus laevis VDR” value on Xenopus laevis VDR is recorded as “No effect”.

Take `C=CC[C@@H]1[C@H](O)CC[C@@]2(C)[C@H]1CC[C@@H]1[C@@H]2CC[C@]2(C)[C@@H]([C@H](C)CCCC(C)C)CC[C@@H]12` [LY 295427]: the “Effect on sea lamprey VDR” value at Sea lamprey VDR (setting [1]) was “No effect”. Also, the “Effect on zebrafish VDR” value at Zebrafish VDR is recorded as “No effect”. Moreover, on Xenopus laevis VDR, the “Effect on Xenopus laevis VDR” value was “No effect”.

With `CC(C)=CCC[C@@H](C)[C@H]1CC[C@@]2(C)C3=C(CC[C@]12C)[C@@]1(C)CC[C@H](O)C(C)(C)[C@@H]1CC3` [Lanosterol], the “Effect on sea lamprey VDR” value at Sea lamprey VDR (setting [1]) was “No effect”. For the same compound, the “Effect on zebrafish VDR” value on Zebrafish VDR was “No effect”. For the same compound, the “Effect on Xenopus laevis VDR” value on Xenopus laevis VDR was “No effect”.

As to `CC(C)CCC[C@@H](C)[C@H]1CC[C@H]2C3=CC[C@H]4C[C@@H](O)CC[C@]4(C)[C@H]3CC[C@]12C` [Lathosterol], the “Effect on sea lamprey VDR” value on Sea lamprey VDR (setting [1]) is listed as “No effect”. Also, at Zebrafish VDR, the “Effect on zebrafish VDR” value was “No effect”. Moreover, the “Effect on Xenopus laevis VDR” value on Xenopus laevis VDR is on record as “No effect”.

For `C#C[C@]1(O)CC[C@H]2[C@@H]3CCC4=CC(=O)CC[C@@H]4[C@H]3CC[C@@]21CC` [Levonorgestrol], the “Effect on sea lamprey VDR” value at Sea lamprey VDR (setting [1]) is “No effect”. The “Effect on zebrafish VDR” value on Zebrafish VDR is “No effect”. Further, the “Effect on Xenopus laevis VDR” value at Xenopus laevis VDR is “No effect”.

As for `C[C@H](CCC(=O)O)[C@H]1CC[C@H]2[C@@H]3CC[C@@H]4C[C@H](O)CC[C@]4(C)[C@H]3CC[C@]12C` [Lithocholic acid], the “Sea lamprey VDR EC50 ± SD” value at Sea lamprey VDR (setting [2]) is on record as “No effect”. Further, the “Zebrafish VDR EC50 ± SD” value at Zebrafish VDR (setting [2]) is given as “No effect”. Further, the “Xenopus VDR EC50 ± SD” value on Xenopus laevis VDR (setting [2]) is listed as “No effect”.

With `COc1c(C)c2c(c(O)c1C/C=C(\C)CCC(=O)O)C(=O)OC2` [Mycophenolic acid], the “Effect on sea lamprey VDR” value on Sea lamprey VDR (setting [1]) was “No effect”. Besides, the “Effect on zebrafish VDR” value at Zebrafish VDR is reported as “No effect”. Moreover, at Xenopus laevis VDR, the “Effect on Xenopus laevis VDR” value is reported as “No effect”.

As for `CCCCCCCC/C=C\CCCCCCCC(=O)NCCO` [N-Oleoylethanolamide], on Sea lamprey VDR (setting [1]), the “Effect on sea lamprey VDR” value is listed as “No effect”. The “Effect on zebrafish VDR” value at Zebrafish VDR is “No effect”. On Xenopus laevis VDR, the “Effect on Xenopus laevis VDR” value is reported as “No effect”.

`C#C[C@]1(O)CC[C@H]2[C@@H]3CCC4=CC(=O)CC[C@@H]4[C@H]3CC[C@@]21C` [Norethindrone]: at Sea lamprey VDR, the “Effect on sea lamprey VDR” value is reported as “No effect”. Also, the “Effect on zebrafish VDR” value on Zebrafish VDR is recorded as “No effect”. Further, the “Effect on Xenopus laevis VDR” value on Xenopus laevis VDR was “No effect”.

For the compound `CC(=O)O[C@H]1C(=O)[C@@]2(C)[C@H]([C@H](OC(=O)c3ccccc3)[C@]3(O)C[C@H](OC(=O)[C@H](O)[C@@H](NC(=O)c4ccccc4)c4ccccc4)C(C)=C1C3(C)C)[C@]1(OC(C)=O)CO[C@@H]1C[C@@H]2O` [Paclitaxel], the “Effect on sea lamprey VDR” value on Sea lamprey VDR (setting [1]) is “No effect”. The “Effect on zebrafish VDR” value on Zebrafish VDR is on record as “No effect”. In addition, the “Effect on Xenopus laevis VDR” value at Xenopus laevis VDR is given as “No effect”.
